Results on 27 molecules are retold here after patent US20240025906A1 (NEURON23, INC., priority 2022, published 2024).

SMILES strings stand for the structures. A value given as a limit tells only on which side of the number the result lay.

In one assay the target is T1, TYK2 JH2 (Homo sapiens, UniProt P29597).
T1 construct: purchased DiscoverX (KINOMEscan KdELECT service); host or cells: E. coli BL21-derived (T7 phage display) or HEK-293
Briefly: TYK2 JH2 binding assay (KINOMEscan KdELECT competitive binding). The conditions noted are these: TYK2 JH2 domain, KINOMEscan KdELECT (Assay A); read-out: Biochemical TYK2_DiscoverX_JH2_BND_Kd. The method, boiled down: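 Beads carrying a biotinylated ligand were mixed with tagged JH2 kinase and compound (11 points, 3-fold steps, 0.9% DMSO) and shaken 1 h at room temperature. After washing, kinase was released with 0.5 μM untagged ligand over 30 min and measured by qPCR to derive Kd.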

The subject of assay [1] is JAK1/TYK2 pSTAT5 (Tyr694/699) in THP-1 cell line. Briefly: IFNa-stimulated JAK1/TYK2 pSTAT5 (Tyr694/699) inhibition cellular assay, AlphaLISA. It is filed as cell-based. The conditions noted are these: Homo sapiens; THP-1 cells, IFNa-stimulated, AlphaLISA (Assay B); read-out: Cellular_THP1_IFNa-pSTATS_TYK2. Put shortly:
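The readout is AlphaLISA signal at 615 nm for phospho-STAT5 in THP-1 lysates after IFNa stimulation (added at 100 ng/mL, 30 min, 37 °C). Cells had compound for 1 h beforehand across eight 6-fold concentrations up to 10000 nM final. IC50s are 4PL fits with bottom and Hill slope constrained.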

T1 sequence (P29597 589-875 limits assumed): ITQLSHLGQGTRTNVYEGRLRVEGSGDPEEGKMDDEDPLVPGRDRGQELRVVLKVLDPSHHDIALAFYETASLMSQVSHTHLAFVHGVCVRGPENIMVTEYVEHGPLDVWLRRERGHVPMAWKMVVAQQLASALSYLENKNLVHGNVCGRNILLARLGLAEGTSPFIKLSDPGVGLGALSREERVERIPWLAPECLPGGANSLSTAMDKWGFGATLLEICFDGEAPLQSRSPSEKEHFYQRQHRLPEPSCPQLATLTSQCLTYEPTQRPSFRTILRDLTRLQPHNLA

For the molecule `CNc1ncc(-c2ccc(COc3ccncc3)cc2)c2cc(NC(=O)C3CC3)ncc12` [Example 868, N-(8-(methylamino)-5-(4-((pyridin-4-yloxy)methyl)phenyl)-2,7-naphthyridin-3-yl)cyclopropanecarboxamide], on TYK2 JH2, the Kd was at most 0.1 µM. Also, the IC50 in assay [1] is at most 0.5 µM.
In the case of `CNc1ncc(-c2ccc(Cn3ccc(=O)cc3)cc2)c2cc(NC(=O)C3CC3)ncc12` [Example 869, N-(8-(methylamino)-5-(4-((4-oxopyridin-1(4H)-yl)methyl)phenyl)-2,7-naphthyridin-3-yl)cyclopropanecarboxamide], the Kd on TYK2 JH2 is at most 0.1 µM. Moreover, the IC50 in assay [1] is above 0.5 µM.
For `CNc1ncc(-c2ccc(-c3cnnn3C)cc2)c2cc(NC(=O)C3CC3)ncc12` [Example 870, N-(5-(4-(1-methyl-1H-1,2,3-triazol-5-yl)phenyl)-8-(methylamino)-2,7-naphthyridin-3-yl)cyclopropanecarboxamide], in that order: at most 0.1 µM and at most 0.5 µM.
With `CNc1ncc(-c2ccc(-c3cn(C)nn3)cc2)c2cc(NC(=O)C3CC3)ncc12` [Example 871, N-(5-(4-(1-methyl-1H-1,2,3-triazol-4-yl)phenyl)-8-(methylamino)-2,7-naphthyridin-3-yl)cyclopropanecarboxamide], the Kd on TYK2 JH2 is at most 0.1 µM. For the same molecule, the IC50 in assay [1] is at most 0.5 µM.
As for `CNc1ncc(-c2nn3ccnc3s2)c2cc(NC(=O)C3CC3)ncc12` [Example 872, N-(5-(imidazo[2,1-b][1,3,4]thiadiazol-2-yl)-8-(methylamino)-2,7-naphthyridin-3-yl)cyclopropanecarboxamide], the Kd on TYK2 JH2 was at most 0.1 µM. Further, the IC50 in assay [1] was at most 0.5 µM.
`CNc1ncc(-c2nn3c(C)ncc3o2)c2cc(NC(=O)C3CC3)ncc12` [Example 873, N-(8-(methylamino)-5-(5-methylimidazo[5,1-b][1,3,4]oxadiazol-2-yl)-2,7-naphthyridin-3-yl)cyclopropanecarboxamide]: the Kd at TYK2 JH2 is at most 0.1 µM. Further, the IC50 in assay [1] was at most 0.5 µM.
For `CNc1ncc(-c2nc3c(o2)CCC(OC)C3)c2cc(NC(=O)C3CC3)ncc12` (stereo not drawn) [Example 874, N-(5-(5-methoxy-4,5,6,7-tetrahydrobenzo[d]oxazol-2-yl)-8-(methylamino)-2,7-naphthyridin-3-yl)cyclopropanecarboxamide], in that order: at most 0.1 µM and at most 0.5 µM.
Turning to `CNc1ncc(-c2cc3cc(OC)ccn3n2)c2cc(NC(=O)C3CC3)ncc12` [Example 875, N-(5-(5-methoxypyrazolo[1,5-a]pyridin-2-yl)-8-(methylamino)-2,7-naphthyridin-3-yl)cyclopropanecarboxamide], at TYK2 JH2, the Kd was at most 0.1 µM. Moreover, the IC50 in assay [1] was at most 0.5 µM.
For `CCNc1ncc(-c2cc3ccc(N4CCOCC4)cn3n2)c2cc(NC(=O)C3CC3)ncc12` [Example 876, N-(8-(ethylamino)-5-(6-morpholinopyrazolo[1,5-a]pyridin-2-yl)-2,7-naphthyridin-3-yl)cyclopropanecarboxamide], in that order: at most 0.1 µM and at most 0.5 µM.
`CNc1ncc(-c2cc3ccc(OC)cn3n2)c2cc(NC(=O)[C@H]3C[C@H]3C)ncc12` [Example 877, (1S,2R)—N-(5-(6-methoxypyrazolo[1,5-a]pyridin-2-yl)-8-(methylamino)-2,7-naphthyridin-3-yl)-2-methylcyclopropane-1-carboxamide]: the Kd at TYK2 JH2 was at most 0.1 µM. In addition, the IC50 in assay [1] was at most 0.5 µM.
For `CNc1ncc(-c2cnc3ccc(OC)cn23)c2cc(NC(=O)[C@H]3C[C@H]3C)ncc12` [Example 878, (1S,2R)—N-(5-(6-methoxyimidazo[1,2-a]pyridin-3-yl)-8-(methylamino)-2,7-naphthyridin-3-yl)-2-methylcyclopropane-1-carboxamide], in that order: at most 0.1 µM and above 0.5 µM.
For `CNc1ncc(-c2cn3cc(OC)ccc3n2)c2cc(NC(=O)C3CC3)ncc12` [Example 879, N-(5-(6-methoxyimidazo[1,2-a]pyridin-2-yl)-8-(methylamino)-2,7-naphthyridin-3-yl)cyclopropanecarboxamide], at TYK2 JH2, the Kd was at most 0.1 µM. Moreover, the IC50 in assay [1] is at most 0.5 µM.
For `CNc1ncc(-c2cn3cc(N4CCOCC4)ccc3n2)c2cc(NC(=O)C3CC3)ncc12` [Example 880, N-(8-(methylamino)-5-(6-morpholinoimidazo[1,2-a]pyridin-2-yl)-2,7-naphthyridin-3-yl)cyclopropanecarboxamide], in that order: at most 0.1 µM and at most 0.5 µM.
As for `CNc1ncc(-c2cc(-c3ccccc3)[nH]n2)c2cc(NC(=O)C3CC3)ncc12` [Example 881, N-(8-(methylamino)-5-(5-phenyl-1H-pyrazol-3-yl)-2,7-naphthyridin-3-yl)cyclopropanecarboxamide], at TYK2 JH2, the Kd is at most 0.1 µM. Also, the IC50 in assay [1] is above 0.5 µM.
For `CNc1ncc(C#Cc2ccc3nnn(C)c3c2)c2cc(NC(=O)C3CC3)nnc12` [Example 882, N-(5-((1-methyl-1H-benzo[d][1,2,3]triazol-6-yl)ethynyl)-8-(methylamino)pyrido[3,4-c]pyridazin-3-yl)cyclopropanecarboxamide], in that order: at most 0.1 µM and at most 0.5 µM.
The matching figures for `CNc1ncc(C#Cc2ccc(N3CCO[C@H](C)C3)cc2)c2cc(NC(=O)C3CC3)nnc12` [Example 883, (R)—N-(8-(methylamino)-5-((4-(2-methylmorpholino)phenyl)ethynyl)pyrido[3,4-c]pyridazin-3-yl)cyclopropanecarboxamide]: at most 0.1 µM and at most 0.5 µM.
For `CNc1ncc(C#Cc2ccc(OC)cn2)c2cc(NC(=O)C3CC3)nnc12` [Example 884, N-(5-((5-methoxypyridin-2-yl)ethynyl)-8-(methylamino)pyrido[3,4-c]pyridazin-3-yl)cyclopropanecarboxamide], in that order: at most 0.1 µM and at most 0.5 µM.
With `CNc1ncc(-c2nc3ccc(N4CCOCC4)cn3n2)c2cc(NC(=O)C3CC3)nnc12` [Example 885, N-(8-(methylamino)-5-(6-morpholino-[1,2,4]triazolo[1,5-a]pyridin-2-yl)pyrido[3,4-c]pyridazin-3-yl)cyclopropanecarboxamide], the Kd at TYK2 JH2 was at most 0.1 µM. Further, in assay [1], the IC50 was at most 0.5 µM.
The matching figures for `CNc1ncc(-c2nc3ccc(N4CCOCC4)cn3n2)c2cc(NC(=O)C3(F)CC3)nnc12` [Example 886, 1-fluoro-N-(8-(methylamino)-5-(6-morpholino-[1,2,4]triazolo[1,5-a]pyridin-2-yl)pyrido[3,4-c]pyridazin-3-yl)cyclopropane-1-carboxamide]: at most 0.1 µM and at most 0.5 µM.
The matching figures for `CNc1ncc(-c2nc3c(F)cccn3n2)c2cc(NC(=O)C3CC3)nnc12` [Example 887, N-(5-(8-fluoro-[1,2,4]triazolo[1,5-a]pyridin-2-yl)-8-(methylamino)pyrido[3,4-c]pyridazin-3-yl)cyclopropanecarboxamide]: at most 0.1 µM and at most 0.5 µM.
For `CNc1ncc(-c2nc3cc(OC)ccc3o2)c2cc(NC(=O)C3CC3)nnc12` [Example 888, N-(5-(5-methoxybenzo[d]oxazol-2-yl)-8-(methylamino)pyrido[3,4-c]pyridazin-3-yl)cyclopropanecarboxamide], in that order: at most 0.1 µM and at most 0.5 µM.
For the molecule `CNc1ncc(C#Cc2ccc(OC)cn2)c2c(Cl)c(NC(=O)C3CC3)ncc12` [Example 889, N-(4-chloro-5-((5-methoxypyridin-2-yl)ethynyl)-8-(methylamino)-2,7-naphthyridin-3-yl)cyclopropanecarboxamide], the Kd on TYK2 JH2 is at most 0.1 µM. Moreover, the IC50 in assay [1] is above 0.5 µM.
The matching figures for `CNc1ncc(-c2nc3cc(N4CCO[C@@H](C)C4)ccc3o2)c2cc(NC(=O)C3CC3)nnc12` [Example 890, (S)—N-(8-(methylamino)-5-(5-(2-methylmorpholino)benzo[d]oxazol-2-yl)pyrido[3,4-c]pyridazin-3-yl)cyclopropanecarboxamide]: at most 0.1 µM and at most 0.5 µM.
The matching figures for `CNc1ncc(C#Cc2ccc(OC3CN(C(C)=O)C3)cc2)c2cc(NC(=O)C3CC3)nnc12` [Example 893, N-(5-((4-((1-acetylazetidin-3-yl)oxy)phenyl)ethynyl)-8-(methylamino)pyrido[3,4-c]pyridazin-3-yl)cyclopropanecarboxamide]: at most 0.1 µM and at most 0.5 µM.
The matching figures for `CNc1ncc(C#Cc2ccc3c(c2)OCCO3)c2cc(NC(=O)C3CC3)ncc12` [Example 894, N-(5-((2,3-dihydrobenzo[b][1,4]dioxin-6-yl)ethynyl)-8-(methylamino)-2,7-naphthyridin-3-yl)cyclopropanecarboxamide]: at most 0.1 µM and at most 0.5 µM.
In the case of `CNc1ncc(C#Cc2ccc3c(c2)OC=CO3)c2cc(NC(=O)C3CC3)ncc12` [Example 895, N-(5-(benzo[b][1,4]dioxin-6-ylethynyl)-8-(methylamino)-2,7-naphthyridin-3-yl)cyclopropanecarboxamide], on TYK2 JH2, the Kd was at most 0.1 µM. Further, the IC50 in assay [1] was at most 0.5 µM.
The matching figures for `CNc1ncc(C#Cc2ccc(C3CCN(C)C3=O)cc2)c2cc(NC(=O)C3CC3)ncc12` (stereo not drawn) [Example 896, N-(5-((4-(1-methyl-2-oxopyrrolidin-3-yl)phenyl)ethynyl)-8-(methylamino)-2,7-naphthyridin-3-yl)cyclopropanecarboxamide]: at most 0.1 µM and at most 0.5 µM.
